Source: patent publication US9789096B2, “Methods and compositions for selective and targeted cancer therapy” (Board of Regents of the University of Texas System, priority 2013, dated 2017)

Legend:
[1] = biological target: T1, SCD1 (Mus musculus, UniProt P13516); assay: Tritium release assay of SCD1 activity, mouse liver; type: biochemical; conditions: liver expresses CYP4F11
T1 construct: tissue derived from mouse liver and preputial gland was independently exposed; from tissue; host or cells: mouse liver
Text: (§1) FIGS. 10A-10F. Sensitive cells express high levels of CYP4 family members. FIG. 10A. relative expression levels of mRNA for a panel of cytochrome P450 enzymes from the cancer cell line encyclopedia (CCLE, http://www.broadinstitute.org/ccle) showing CYP4F11 in particular is highly expressed in 4 NSCLC lines that are sensitive to SCD1 inhibition. FIG. 10B. Western blot showing that CYP4F11 protein is expressed in all sensitive cell lines but not in the majority of insensitive cell lines. FIG. 10C. […] FIG. 10D. Cells were incubated with either a methoxy-containing oxalamide, which represents the pro-drug form, or the hydroxy containing oxalamide, which represents the active form of the drug. […] FIG. 10E. 293t cells were transfected with mammalian expression plasmids containing SCD1 or CYP4F11 as indicated. Cells were treated with either SW208108 or its demethylated congener, SW211666, and conjugated with a fluorescent dye as described in FIG. 7. Cells containing CYP4F11 form covalent adducts with both the pro-drug (methoxy) and drug form (demethylated, i.e. OH). […] FIG. 10F. Shown are the results of a tritium release assay in which tritiated water is produced from tritiated stearoyl CoA by the action of SCD1. […] By contrast, SW211666 but not SW208108 inhibits SCD1 in mouse preputial gland, which lacks CYP4F11 (bottom). […]

[2] = biological target: T1, SCD1; assay: Tritium release assay of SCD1 activity, mouse preputial gland; type: biochemical; conditions: preputial gland lacks CYP4F11
Text: as §1

[3] = biological target: T2, HMOX2 (Homo sapiens, UniProt P30519); assay: HMOX2 activity in H2122 cell homogenate (bilirubin production); type: biochemical
T2 construct: endogenous in cells; host or cells: H2122 cells (homogenate / lysate)
Protocol: FIG. 7N. Oxalamide inhibits the activity of HMOX2 in vitro. H2122 cell homogenate was incubated with varying concentrations of SW208108 in the presence of excess NADPH, NADPH cytochrome reductase, and biliverdin reductase. The samples were extracted with chloroform and absorbance was measured at 450 nm refecting bilirubin production.
However, when HO2 was knocked out from H2122 cells using Crisper technology (FIG. 7O), no toxicity was observed, and SW208108 and related compounds retained toxicity towards H2122 cells (FIG. 7P). We conclude that HO2 is not required for cell survival or for the cytotoxicity of the selective toxins.

[4] = system: 4 sensitive cell lines; assay: Rescue of toxicity by sodium oleate in 4 sensitive lines; type: cell-based, human; conditions: 100 μM sodium oleate
Text: FIGS. 8D-8E. Sodium oleate rescues the toxicity of SCD1 inhibitors.
Consistent with this interpretation, the toxicity of SW208108 against 4 sensitive cell lines was fully rescued by adding sodium oleic acid to the culture media (FIG. 8D). Moreover, a commercially available SCD1 inhibitor (Cayman chemicals), originally described by Liu et al (compound 28c in the Journal of Medicinal Chemistry, 2007, 50, 3086-3100) was likewise toxic to the same 4 non-small cell lung cancer cell lines (FIG. 8E).

[5] = biological target: T3, SCD1 (Homo sapiens, UniProt O00767); assay: Covalent adduct formation in 293t cells transfected with SCD1 or CYP4F11; type: cell-based; parameters: expressed in transfected cells; host or cells: 293t cells
T3 sequence (O00767 1-359): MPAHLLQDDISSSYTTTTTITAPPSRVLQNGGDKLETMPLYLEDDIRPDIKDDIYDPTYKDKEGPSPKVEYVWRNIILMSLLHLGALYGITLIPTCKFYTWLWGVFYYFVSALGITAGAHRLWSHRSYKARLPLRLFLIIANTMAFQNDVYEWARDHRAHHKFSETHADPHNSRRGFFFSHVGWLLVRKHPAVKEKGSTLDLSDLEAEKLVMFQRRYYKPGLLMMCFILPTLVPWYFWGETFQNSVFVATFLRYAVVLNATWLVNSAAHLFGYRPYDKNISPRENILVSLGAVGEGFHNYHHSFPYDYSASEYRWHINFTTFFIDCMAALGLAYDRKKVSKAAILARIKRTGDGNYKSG
Text: as §1

[6] = biological target: T3, SCD1; assay: Immunoprecipitation of SW208108-bound protein with anti-SCD1; type: binding; parameters: The fluorescent bands confirm that p30 and p37 represent isoforms of SCD1; endogenous in cells; host or cells: H2122 cells
Protocol: FIG. 7L. Antibodies against SCD1 (Pierce) immunoprecipitate SW208108-bound protein. Samples were prepared as in FIG. 7A, and immunoprecipitated with either anti-SCD1 or IgG. The fluorescent bands confirm that p30 and p37 represent isoforms of SCD1.
SCD1 is the functional target of the oxalamides, benzothiazoles, chromones, and related derivatives. Covalent binding of SW208108 to SCD1 was confirmed by incubating cells in the presence of SW208108, lysing them, immunoprecipitating with antibodies to SCD1, and then clicking drug-bound proteins to a dye.

T1 sequence (P13516 whole entry): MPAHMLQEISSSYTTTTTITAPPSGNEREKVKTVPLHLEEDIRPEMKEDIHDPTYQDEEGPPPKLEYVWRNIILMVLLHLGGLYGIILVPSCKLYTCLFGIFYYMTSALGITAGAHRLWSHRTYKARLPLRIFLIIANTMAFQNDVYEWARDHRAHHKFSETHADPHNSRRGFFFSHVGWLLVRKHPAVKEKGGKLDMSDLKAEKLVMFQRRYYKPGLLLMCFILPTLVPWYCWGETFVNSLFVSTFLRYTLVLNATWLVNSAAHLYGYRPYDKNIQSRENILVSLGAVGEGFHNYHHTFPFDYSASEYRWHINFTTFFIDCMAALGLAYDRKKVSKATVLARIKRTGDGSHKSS
T2 sequence (P30519 whole entry): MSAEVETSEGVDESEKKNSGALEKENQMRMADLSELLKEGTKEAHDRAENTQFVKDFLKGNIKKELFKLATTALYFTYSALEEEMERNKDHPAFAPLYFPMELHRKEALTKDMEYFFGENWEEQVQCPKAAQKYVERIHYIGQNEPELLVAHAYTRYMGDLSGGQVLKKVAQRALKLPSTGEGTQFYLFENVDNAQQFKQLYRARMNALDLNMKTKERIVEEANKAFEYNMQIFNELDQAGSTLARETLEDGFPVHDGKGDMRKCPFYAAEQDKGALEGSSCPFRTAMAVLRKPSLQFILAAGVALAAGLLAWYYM

## C#CCOc1ccc(C(=O)c2ccc(NC(=O)C(=O)NCCc3ccc(OC)cc3)cc2)cc1 [SW208108]
[1]
  inhibition of SCD1 activity in mouse liver tissue: only inhibited SCD1 activity in the liver
[2]
  inhibition of SCD1 activity in mouse preputial gland tissue: not in the preputial gland
[3]
  activity of HMOX2 in vitro: inhibits
[4]
  toxicity against 4 sensitive cell lines with sodium oleic acid: fully rescued
[5]; SCD1 expressed alone
  covalent modification of SCD1 in 293t cells in the absence of CYP4F11: unable to covalently modify SCD1
[5]; with or without HET0016
  covalent modification of SCD1 in 293t cells expressing SCD1 and CYP4F11: covalently modify SCD1
[6]
  covalent binding to SCD1 (immunoprecipitation): confirmed
